According to US20230045151A1, “COMPOSITIONS AND METHODS” (MONASH UNIVERSITY, priority 2020, published 2023):
Counter-ions that a name gives are not always drawn.

Columns and labels:
CCL20 = experiment: In vitro stimulation of lung cells enriched for airway epithelial cells, chemokine release; type: cell-based, mouse; settings: 24 hours; for CCL20 production by lung cells stimulated with LPS: EGF 100 ng/ml, amphiregulin 500 ng/ml or gefitinib 0.16 μM, lower efficacy than PCS
Method: Mice were euthanized by CO2 inhalation, instilled with a 1.5 ml dispase II (Sigma-Aldrich) intratracheally, followed by intratracheal injection of 0.5 ml 1% low melting point agarose (Sigma-Aldrich). Lungs were then covered with ice for 3 min, removed and placed in a 15 ml falcon tube with 2 ml of dispase II, and incubated for 45 min with gentle agitation. This was followed by mechanical disruption of the lung lobes using forceps in DMEM supplemented with DNAse I (Sigma-Aldrich, 1U/ml), filtration through 70- and 40-μM cell strainers (Falcon®, Corning) and lysis of erythrocytes using red blood cell lysing buffer (BD Biosciences). Lung cells were plated in a flat-bottom 24-well or 96-well plates (Costar) coated with fibronectin (Sigma-Aldrich, 10 μg/ml) at the density of 1 mln or 0.2 mln cells/well, respectively.
5% CO2, after which the supernatant was collected and stored at −20° C. until further use.

[1] = test system: C57BL6/J mice exposed intranasally to house dust mite extract (HDM); experiment: HDM animal model of allergic airway inflammation; type: in vivo, mouse
Method: Mice received water as a control or L-tyrosine (reagent grade, ≥98% Sigma-Aldrich, St. Louis, Mo.) resuspended in drinking water under sterile conditions at the concentration of 100 mg/kg/day or 500 mg/kg/day (based on the assumption of a mouse consuming 4 ml of water daily). All mice received the treatment 2 weeks prior and throughout the experiment. […] Control mice received 200 μl of saline. […]. For experiments employing antibiotic treatment, 3-week old mice were treated with a combination enrofloxacin (10 mg/kg/day) and amoxicillin with clavulanic acid (1 mg/kg/day) for one week, followed by one week of only amoxicillin with clavulanic acid (1 mg/kg/day). Then, mice were then put on L-tyrosine diet in drinking water for two weeks followed by HDM exposure as before. During this time, mice were maintained on antibiotic treatment with amoxicillin/clavulanic acid until end of experiment.
Mice were anaesthetised by the inhalation of 4% isoflurane in oxygen for 3-5 minutes. 20 μg of protein content of crude house dust mite extract (HDM) (Greer Laboratories Inc., Lenoir, N.C.) in 20 μl of sterile phosphate-buffered saline (PBS) (Gibco™) was applied intranasally on days 0, 11, 12 and 13. Mice were humanely sacrificed with the lethal dose of pentobarbital (Streuli Pharma AG, Uznach, Switzerland) on day 14.
Bronchoalveolar lavage fluid (BALF) was collected by flushing airways with 0.5 ml PBS supplemented with 0.2% bovine serum albumin (Sigma-Aldrich, St. Louis, Mo.). Total cell number was determined with Coulter Counter (IG Instrumenten-Gesellschaft AG, Basel, Switzerland) while differential cell staining performed on cytospins stained with Diff-Quik solution (Dade Behring, Siemens Healthcare Diagnostics, Deerfield, Ill.). Percentages of neutrophils, macrophages, lymphocytes and eosinophils were assessed by counting 200 cells per sample.
Concentrations of interleukin-4, -5, -13, -17 and IFN-γ in culture supernatants were analysed with mouse Ready-Set-Go!™ ELISA kits (eBioscience™, San Diego, Calif.) according to manufacturer's instructions. To measure the levels of HDM-specific IgG1 and IgE in plasma, half area 96-well plates (Corning) were coated with HDM (10 μg in PBS) overnight at 4° C., followed by the incubation of samples for 2 hours at RT, and the addition of alkaline-phophatase-conjugated goat anti-mouse IgE or IgG1 (both from SouthernBiotech, Birmingham, Ala.; diluted at 1 μg ml-1 in PBS 0.2% BSA) for 2 hours at RT. 4-nitrophenyl phosphate sodium salt hexahydrate (pNPP) (Sigma) was used as a substrate, and the colorimetric reaction was read at 405 nm on the Synergy H1 microplate reader (Biotek, Luzern, Switzerland). To measure the levels of total IgA and IgM as well as hen egg lysozyme (HEL)-specific IgA and IgM in mouse faeces, faecal pellets were homogenized in 0.8 ml cold PBS, centrifuged at 400 g for 5 minutes to remove large debris, filtered through 40 μm cell strainer and centrifuged at 8000 g for 10 minutes to pellet bacteria. The supernatant was collected and loaded for 2 hours at RT on 96-well half area plates coated a day before at 4° C. with anti-IgA (Southern Biotech; 2 μg ml-1), anti-IgM (SouthernBiotech; 2 μg ml-1) or HEL protein (Sigma-Aldrich; 10 μg/ml). This step was followed by the addition of alkalinephophatase-conjugated goat anti-mouse IgA or IgM (both at 1 μg ml-1 in PBS 0.2% BSA) for 2 hours at RT. 4-nitrophenyl phosphate sodium salt hexahydrate (pNPP) (Sigma) was used as a substrate, and the colorimetric reaction was read at 405 nm as before.
Mediastinal lymph nodes were filtered through a 40 μm cell strainer, washed with PBS supplemented with 1% fetal bovine serum and 2 mM EDTA (Invitrogen) (MACS buffer). Lungs were finely cut with scissors, digested with Collagenase IV (Gibco™) in Iscove's modified Dulbecco's medium (IMDM, Gibco™) for 50 min at 37° C. and processed as the lymph nodes.

[2] = test system: mice exposed intranasally to ovalbumin/LPS; experiment: OVA/LPS animal model of pulmonary type 1 inflammation; type: in vivo, mouse; settings: PCS intravenous on day -1 and day 11
Method: Results are from one experiment (n=4 per group, p=0.0335). All data are presented as mean values+/−SEM. *p≤0.05. Statistical significance was evaluated with Mann-Whitney test.
Mice were anaesthetized by the inhalation of 4% isoflurane in oxygen for 3-5 min. 100 μg Ovalbumin (Invivogen, cat nr vac-pova) was mixed with 10 μg LPS from E. coli (Sigma-Aldrich, cat nr L4391) and administered intranasally per mouse on days 0, 11, 12 and 13. Mice were sacrificed with the lethal dose of pentobarbital on day 14.

[3] = mouse, in vivo
Method: Concentrations of cystatin, clusterin, lipocalin-2 and osteopontin in serum of vehicle or PCStreated mice were determined with MILLIPLEX MAP Mouse Kidney Injury Magnetic Bead Panel 2—Toxicity Multiplex Assay (Merck) according to manufacturer's instructions.

[4] = test system: epithelial cells, dendritic cells, macrophages and bone marrow precursors; experiment: Effect of PCS on cells (deleteriousness); type: cell-based
[5] = mice with normal renal function, cited from earlier work
[6] = PCS intravenous 40 mg/kg, lymph node cells restimulated with HDM for 4 days
[7] = lung cells from naive mice, HDM 100 μg/ml, PCS 100 μg/ml

EGF: high affinity EGFR ligand, Epidermal Growth Factor
CCL20 production by lung cells stimulated with LPS (CCL20; LPS 10 μg/ml): selective reduction

Cc1ccc(OS(=O)(=O)O)cc1 [PCS, p-cresol sulfate]
FoxP3+ Tregs in the lungs ([1]; PCS intravenous 40 mg/kg): no major alterations | numbers of lung CD4+ T cells ([1]; PCS intravenous 40 mg/kg): no major alterations | recruitment of neutrophils ([1]; PCS intravenous 40 mg/kg): reduced | infiltration of DCs into the lungs ([1]; PCS intravenous 40 mg/kg, vs saline): decreased | production of IL-5 by restimulated mediastinal lymph nodes [1, 6]: reduced | production of IL-13 by restimulated mediastinal lymph nodes [1, 6]: reduced | eosinophilia in the BALF ([1]; PCS intravenous (retro-orbital) 40 mg/kg on day -1 and day 11, vs saline, HDM days 0, 11, 12, 13): ameliorated | HDM-induced production of CCL20 (CCL20; [7]): completely abrogated | HDM-induced secretion of other chemokines (CCL20; [7]): did not have an effect | LPS-induced CCL20 (CCL20; lung cells from naive mice, LPS 10 μg/ml, PCS 100 μg/ml): inhibited | infiltration of CD4+ T cells to the airways ([2]; ovalbumin/LPS): inhibited | infiltration of CD8+ T cells to the airways ([2]; ovalbumin/LPS): inhibited | infiltration of neutrophils to the airways ([2]; ovalbumin/LPS intranasal days 0, 11, 12, 13): inhibited | elevation of major kidney toxicity markers [3]: not detected | deleterious effect on epithelial cells, dendritic cells, macrophages and bone marrow precursors [4]: not deleterious | time to clearance from the blood ([5]; intraperitoneal or oral PCS): ≤ 4 h | accumulation on chronic administration ([5]; twice a day for 4 weeks): does not lead to its accumulation

COc1cc2ncnc(Nc3ccc(F)c(Cl)c3)c2cc1OCCCN1CCOCC1 [gefitinib, reference compound]
CCL20 production by lung cells stimulated with LPS (CCL20; LPS 10 μg/ml): selective reduction
